This is an account of results in patent publication US5344932A, “N-(pyrrolo(2,3-d)pyrimidin-3-ylacyl)-glutamic acid derivatives” (Trustees of Princeton University, priority 1991, dated 1994).

For data set [1], the system named is human T-cell derived lyphoblastic leukemia cells (CCRF-CEM). The data set is described as follows: Reversal of cytotoxicity by addition of hypoxanthine/purines, AICA, thymidine or leucovorin. It is filed as cell-based. From the text:
(§1) As noted, the compounds of this invention have an effect on one or more enzymes which utilize folic acid, and in particular metabolic derivatives of folic acid, as a substrate. […] Cytotoxicity is not reversed by addition of purines such as hypoxanthine or by addition of aminoimidazolecarboxamide but is reversed by addition of thymidine, indicating specific inhibition in the tymidylate cycle and not in de novo purine synthesis. The compounds can be used, under the supervision of qualified professionals, to inhibit the growth of neoplasms including choriocarcinoma, leukemia, adenocarcinoma of the female breast, epidermid cancers of the head and neck, squamous or small-cell lung cancer, and various lymphosarcomas. The compounds can also be used to treat mycosis fungoides and psoriasis.
Cytotoxicity is also reversed by addition of leucovorin, indicating the cytotoxicity is due to antagonism of a folate-related mechanism.

The subject of another data set is L5178Y/TK^- tumor line. Kind of data set: In vivo activity against L5178Y/TK^- tumor line in DBA/2 mice (female). The protocol: In vivo activity can be seen from the following representative data for N-{4-[2-(4-hydroxy-6-aminopyrrolo[2,3-d]pyrimidin-3-yl)ethyl]benzoyl}-L-glutamic acid against the L5178Y/TK^- tumor line in DBA/2 mice (female), administration being ip in a total volume of 0.5 mL daily for eight days: […]

The test system of data set [2] is human T-cell derived lyphoblastic leukemia cells (CCRF-CEM). Kind of data set: Inhibition of growth of CCRF-CEM cell cultures. Format: cell-based.
Text: as §1
Representative inhibition values against CCRF-CEM 5 cell cultures for typical compounds are as follows: […]

The mark [3] stands for this setting: dose 25.00, ip daily for eight days.
Where [4] appears, read: dose 50.00, ip daily for eight days.
The mark [5] stands for this setting: dose 100.00, ip daily for eight days.
Where [6] appears, read: dose 200.00, ip daily for eight days.

As for `Nc1nc2[nH]cc(CCc3ccc(C(=O)N[C@@H](CCC(=O)O)C(=O)O)cc3)c2c(=O)[nH]1`, the “Reversal of cytotoxicity by addition of aminoimidazolecarboxamide (AICA)” value in data set [1] (addition of aminoimidazolecarboxamide (AICA)) was “not reversed”. The “Reversal of cytotoxicity by addition of purines such as hypoxanthine” value in data set [1] (addition of hypoxanthine) was “not reversed”. Further, the “Reversal of cytotoxicity by addition of thymidine” value in data set [1] (addition of thymidine) is recorded as “reversed”. The Toxicity in the data set with L5178Y/TK^- tumor line (dose 12.50, ip daily for eight days) is 0/7; in the data set with L5178Y/TK^- tumor line (setting [3]) it was 0/7; in the data set on L5178Y/TK^- tumor line (setting [4]), 0/6; with L5178Y/TK^- tumor line (setting [5]), 0/7; in the data set with L5178Y/TK^- tumor line (setting [6]), 0/7. For the same compound, the “% Inhibition” value in the data set on L5178Y/TK^- tumor line (setting [3]), in the data set on L5178Y/TK^- tumor line (setting [4]), in the data set with L5178Y/TK^- tumor line (setting [5]) and with L5178Y/TK^- tumor line (setting [6]) was 100% throughout. Also, the “Tumor Weight” value with L5178Y/TK^- tumor line (setting [3]), with L5178Y/TK^- tumor line (setting [4]), in the data set with L5178Y/TK^- tumor line (setting [5]) and in the data set on L5178Y/TK^- tumor line (setting [6]) was 0 ± 0 each time.
Take `Nc1nc(O)c2c(CCc3ccc(C(=O)N[C@@H](CCC(=O)O)C(=O)O)o3)c[nH]c2n1` [N-{5-[2-(4-hydroxy-6-aminopyrrolo[2,3-d]pyrimidin-3-yl)ethyl]fur-2-ylcarbonyl}-L-glutamic acid]: the IC50 in data set [2] was above 20 µg/mL.
